The values below come from patent publication US12539292B2, “BRM targeting compounds and associated methods of use” (Arvinas Operations, Inc., priority 2018, dated 2026).

Like-named read-outs stand apart in the source and are kept apart here. Where only a bound is given, the exact number is not on record here.

This test has as its target T1, BRM (Homo sapiens, UniProt P51531).
T1 construct: In-Cell Western Screen of BRM Degradation in SW1573 Cells; endogenous in cells; host or cells: SW1573
The experiment in a line: In-cell Western screen of BRM degradation in SW1573 cells (Dmax and DC50). It is filed as cell-based. In a few lines:
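SW1573 cells were treated with compound overnight (18-20 h; final DMSO 0.1%), then fixed in 4% PFA, permeabilized with Triton X-100 and blocked. BRM was detected by in-cell Western using 800 nm anti-rabbit and 680 nm anti-mouse secondaries, and Dmax and DC50 were derived from the LI-COR Odyssey signal.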

Where [1] appears, read: BRM degradation, SW1573 cells, Table 2D, read-out: *DC50.
The mark [2] stands for this setting: BRM degradation, SW1573 cells, read-out: DC50.
Where [3] appears, read: BRM degradation, SW1573 cells, read-out: Dmax (% degraded).
Where [4] appears, read: BRM degradation, SW1573 cells, when tested at the top concentration of between 0.3 and 10 μM, read-out: Dmax (%) (% degraded).
Setting [5] is: BRM degradation, read-out: BRM DC50.
The mark [6] stands for this setting: SW1573, % degraded, when tested at the top concentration of between 0.3 and 10 μM, read-out: BRM Dmax (%).
[7] abbreviates: target protein degradation, read-out: BRM DC50.

T1 sequence (P51531 whole entry): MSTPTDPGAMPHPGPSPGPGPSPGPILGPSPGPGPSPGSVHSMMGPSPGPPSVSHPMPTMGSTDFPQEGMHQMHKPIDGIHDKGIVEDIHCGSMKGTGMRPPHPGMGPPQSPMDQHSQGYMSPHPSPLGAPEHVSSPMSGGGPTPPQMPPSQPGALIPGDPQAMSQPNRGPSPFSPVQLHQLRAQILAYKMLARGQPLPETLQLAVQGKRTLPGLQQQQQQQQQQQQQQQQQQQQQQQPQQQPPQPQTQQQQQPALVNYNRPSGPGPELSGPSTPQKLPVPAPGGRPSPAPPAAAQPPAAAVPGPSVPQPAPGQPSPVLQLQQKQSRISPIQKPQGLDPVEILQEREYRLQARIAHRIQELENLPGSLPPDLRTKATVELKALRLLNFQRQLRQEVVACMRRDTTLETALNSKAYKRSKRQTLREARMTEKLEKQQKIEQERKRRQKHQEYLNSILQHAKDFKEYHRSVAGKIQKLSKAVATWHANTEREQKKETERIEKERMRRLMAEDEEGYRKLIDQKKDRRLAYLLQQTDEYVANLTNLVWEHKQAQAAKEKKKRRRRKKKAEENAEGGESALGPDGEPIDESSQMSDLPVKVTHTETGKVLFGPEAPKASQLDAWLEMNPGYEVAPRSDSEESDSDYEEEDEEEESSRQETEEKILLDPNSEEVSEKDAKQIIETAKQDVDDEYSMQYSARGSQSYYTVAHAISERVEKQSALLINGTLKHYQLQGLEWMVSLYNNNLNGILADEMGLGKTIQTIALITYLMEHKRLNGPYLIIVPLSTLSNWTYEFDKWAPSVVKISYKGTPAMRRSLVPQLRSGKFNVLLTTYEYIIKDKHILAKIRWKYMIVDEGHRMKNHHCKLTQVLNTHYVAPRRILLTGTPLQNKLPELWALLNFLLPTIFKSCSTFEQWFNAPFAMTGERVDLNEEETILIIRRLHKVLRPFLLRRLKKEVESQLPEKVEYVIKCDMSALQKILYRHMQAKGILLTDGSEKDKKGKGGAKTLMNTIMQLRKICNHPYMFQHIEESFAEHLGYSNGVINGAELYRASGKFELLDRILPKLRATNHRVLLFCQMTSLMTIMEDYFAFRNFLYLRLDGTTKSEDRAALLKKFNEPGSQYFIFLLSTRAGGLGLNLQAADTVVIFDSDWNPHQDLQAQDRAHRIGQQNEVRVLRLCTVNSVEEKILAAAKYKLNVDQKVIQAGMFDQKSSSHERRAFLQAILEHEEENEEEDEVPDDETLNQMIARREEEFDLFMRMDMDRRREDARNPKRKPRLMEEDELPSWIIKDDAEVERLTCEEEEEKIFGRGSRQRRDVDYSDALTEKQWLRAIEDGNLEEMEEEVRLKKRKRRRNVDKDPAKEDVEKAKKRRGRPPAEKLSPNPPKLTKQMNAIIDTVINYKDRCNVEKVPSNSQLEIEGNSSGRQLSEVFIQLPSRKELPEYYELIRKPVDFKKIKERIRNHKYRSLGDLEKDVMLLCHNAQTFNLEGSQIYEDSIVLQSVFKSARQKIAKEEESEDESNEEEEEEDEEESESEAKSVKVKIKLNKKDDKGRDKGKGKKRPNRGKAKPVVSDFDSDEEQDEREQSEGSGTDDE

Consider `CNC(=O)CCC[C@H](NC(=O)[C@@H]1C[C@@H](O)CN1C(=O)[C@H](c1cc(OCCN2CCC(O[C@H]3C[C@H](Oc4cc(N5C6CCC5CN(c5cc(-c7ccccc7O)nnc5N)C6)ccn4)C3)CC2)no1)C(C)C)c1ccc(-c2scnc2C)cc1` [compound 569, (2S,4R)-1-((2S)-2-(3-(2-(4-((1r,3S)-3-((4-(3-(3-amino-6-(2-hydroxyphenyl)pyridazin-4-yl)-3,8-diazabicyclo[3.2.1]octan-8-yl)pyridin-2-yl)oxy)cyclobutoxy)piperidin-1-yl)ethoxy)isoxazol-5-yl)-3-methylbutanoyl)-4-hydroxy-N-((S)-5-(methylamino)-1-(4-(4-methylthiazol-5-yl)phenyl)-5-oxopentyl)pyrrolidine-2-carboxamide], for which the DC50 under setting [1] is over 30 nM.

In the case of `Cc1ncsc1-c1ccc([C@H](C)NC(=O)[C@@H]2C[C@@H](O)CN2C(=O)[C@@H](c2cc(N3CCC(CN4CCC(Oc5cc(N6C7CCC6CN(c6cc(-c8ccccc8O)nnc6N)C7)ccn5)CC4)CC3)no2)C(C)C)cc1` [compound 602, (2S,4R)-1-((2R)-2-(3-(4-((4-((4-(3-(3-amino-6-(2-hydroxyphenyl)pyridazin-4-yl)-3,8-diazabicyclo[3.2.1]octan-8-yl)pyridin-2-yl)oxy)piperidin-1-yl)methyl)piperidin-1-yl)isoxazol-5-yl)-3-methylbutanoyl)-4-hydroxy-N-((S)-1-(4-(4-methylthiazol-5-yl)phenyl)ethyl)pyrrolidine-2-carboxamide], the Dmax (BRM degradation, SW1573 cells, Table 2D, read-out: **Dmax (%) (% degraded)) is over 75%. In addition, the DC50 under setting [1] is under 2.5 nM.

On to `Cc1ncsc1-c1ccc([C@H](C)NC(=O)[C@@H]2C[C@@H](O)CN2C(=O)[C@@H](c2cc(OCCN3CC[C@H](O[C@H]4C[C@H](Oc5cc(N6C7CCC6CN(c6cc(-c8ccccc8O)nnc6N)C7)ccn5)C4)C[C@H]3C)no2)C(C)C)cc1` [compound 628, (2S,4R)-1-((2R)-2-(3-(2-((2R,4S)-4-((1r,3S)-3-((4-(3-(3-amino-6-(2-hydroxyphenyl)pyridazin-4-yl)-3,8-diazabicyclo[3.2.1]octan-8-yl)pyridin-2-yl)oxy)cyclobutoxy)-2-methylpiperidin-1-yl)ethoxy)isoxazol-5-yl)-3-methylbutanoyl)-4-hydroxy-N-((S)-1-(4-(4-methylthiazol-5-yl)phenyl)ethyl)pyrrolidine-2-carboxamide], for which the DC50 under setting [2] is under 2.5 nM. The Dmax under setting [3] was over 75%.

Take `Cc1ncsc1-c1ccc([C@H](C)NC(=O)[C@@H]2C[C@@H](O)CN2C(=O)C(C(C)C)n2cc(OCCN3CCN(CCOc4cc(N5C6CCC5CN(c5cc(-c7ccccc7O)nnc5N)C6)ccn4)CC3)cn2)cc1` (stereo in doubt) [compound 39, (2S,4R)-1-[(2S)-2-[4-[2-(4-[2-[(4-[3-[3-amino-6-(2-hydroxyphenyl)pyridazin-4-yl]-3,8-diazabicyclo[3.2.1]octan-8-yl]pyridin-2-yl)oxy]ethyl]piperazin-1-yl)ethoxy]-1H-pyrazol-1-yl]-3-methylbutanoyl]-4-hydroxy-N-[(1S)-1-[4-(4-methyl-1,3-thiazol-5-yl)phenyl]ethyl]pyrrolidine-2-carboxamide]: the DC50 under setting [2] was over 30 nM. For the same molecule, the Dmax under setting [4] was over 75%.

As for `Cc1ncsc1-c1ccc([C@H](C)NC(=O)[C@@H]2C[C@@H](O)CN2C(=O)[C@H](c2cc(N3CC(CN4CC(COc5cc(N6C7CCC6CN(c6cc(-c8ccccc8O)nnc6N)C7)ccn5)C4)C3)no2)C(C)C)cc1` [compound 518, (2S,4R)-1-((2S)-2-(3-(3-((3-(((4-(3-(3-amino-6-(2-hydroxyphenyl)pyridazin-4-yl)-3,8-diazabicyclo[3.2.1]octan-8-yl)pyridin-2-yl)oxy)methyl)azetidin-1-yl)methyl)azetidin-1-yl)isoxazol-5-yl)-3-methylbutanoyl)-4-hydroxy-N-((S)-1-(4-(4-methylthiazol-5-yl)phenyl)ethyl)pyrrolidine-2-carboxamide], the DC50 under setting [5] is over 30 nM.

For the molecule `Cc1ncsc1-c1ccc([C@H](C)NC(=O)[C@@H]2C[C@@H](O)CN2C(=O)[C@H](c2cc(N3CCN(CC4CCN(C[C@H]5C[C@H](Oc6cc(N7C8CCC7CN(c7cc(-c9ccccc9O)nnc7N)C8)ccn6)C5)CC4)CC3)no2)C(C)C)cc1` [compound 457, (2S,4R)-1-((2S)-2-(3-(4-((1-(((1r,3r)-3-((4-(3-(3-amino-6-(2-hydroxyphenyl)pyridazin-4-yl)-3,8-diazabicyclo[3.2.1]octan-8-yl)pyridin-2-yl)oxy)cyclobutyl)methyl)piperidin-4-yl)methyl)piperazin-1-yl)isoxazol-5-yl)-3-methylbutanoyl)-4-hydroxy-N-((S)-1-(4-(4-methylthiazol-5-yl)phenyl)ethyl)pyrrolidine-2-carboxamide], the Dmax under setting [6] is over 75%. Moreover, the DC50 under setting [7] is under 2.5 nM.

Take `Cc1ncsc1-c1ccc([C@H](C)NC(=O)[C@@H]2C[C@@H](O)CN2C(=O)[C@@H](c2cc(OCCN3CCC(O[C@H]4C[C@H](Oc5cc(N6C7CCC6CN(c6cc(-c8ccccc8O)nnc6N)C7)ccn5)C4)CC3)no2)C(C)C)nn1` [compound 504, (2S,4R)-1-((2R)-2-(3-(2-(4-((1r,3R)-3-((4-(3-(3-amino-6-(2-hydroxyphenyl)pyridazin-4-yl)-3,8-diazabicyclo[3.2.1]octan-8-yl)pyridin-2-yl)oxy)cyclobutoxy)piperidin-1-yl)ethoxy)isoxazol-5-yl)-3-methylbutanoyl)-4-hydroxy-N-((S)-1-(6-(4-methylthiazol-5-yl)pyridazin-3-yl)ethyl)pyrrolidine-2-carboxamide]: the DC50 under setting [5] was over 30 nM.

Consider `Cc1ncsc1-c1ccc([C@H](C)NC(=O)[C@@H]2C[C@@H](O)CN2C(=O)[C@@H](c2cc(OCCCCN3CCN(CCCCOc4cc(N5C6CCC5CN(c5cc(-c7ccccc7O)nnc5N)C6)ccn4)CC3)no2)C(C)C)cc1` [compound 390, (2S,4R)-1-((2R)-2-(3-(4-(4-(4-((4-(3-(3-amino-6-(2-hydroxyphenyl)pyridazin-4-yl)-3,8-diazabicyclo[3.2.1]octan-8-yl)pyridin-2-yl)oxy)butyl)piperazin-1-yl)butoxy)isoxazol-5-yl)-3-methylbutanoyl)-4-hydroxy-N-((S)-1-(4-(4-methylthiazol-5-yl)phenyl)ethyl)pyrrolidine-2-carboxamide], for which, under setting [6], the Dmax was over 75%. The DC50 under setting [7] was under 2.5 nM.

With `Cc1ncsc1-c1ccc([C@H](C)NC(=O)[C@@H]2C[C@@H](O)CN2C(=O)[C@H](c2cc(N3CCC(CO[C@H]4C[C@H](Oc5cc(N6C7CCC6CN(c6cc(-c8ccccc8O)nnc6N)C7)ccn5)C4)CC3)no2)C(C)C)cc1` [compound 433, (2S,4R)-1-((2S)-2-(3-(4-(((1r,3S)-3-((4-(3-(3-amino-6-(2-hydroxyphenyl)pyridazin-4-yl)-3,8-diazabicyclo[3.2.1]octan-8-yl)pyridin-2-yl)oxy)cyclobutoxy)methyl)piperidin-1-yl)isoxazol-5-yl)-3-methylbutanoyl)-4-hydroxy-N-((S)-1-(4-(4-methylthiazol-5-yl)phenyl)ethyl)pyrrolidine-2-carboxamide], the Dmax under setting [6] was over 75%. Moreover, the DC50 (degradation of BRM, read-out: BRM DC50) lay within 2.5 to 10 nM.

`Cc1ncsc1-c1ccc(CNC(=O)[C@@H]2C[C@@H](O)CN2C(=O)[C@@H](c2cc(OCCN3CCC(O[C@H]4C[C@H](Oc5cc(N6C7CCC6CN(c6cc(-c8ccccc8O)nnc6N)C7)ccn5)C4)CC3)no2)C(C)C)c(C#N)c1` [compound 225, (2S,4R)-1-((2R)-2-(3-(2-(4-((1r,3R)-3-((4-(3-(3-amino-6-(2-hydroxyphenyl)pyridazin-4-yl)-3,8-diazabicyclo[3.2.1]octan-8-yl)pyridin-2-yl)oxy)cyclobutoxy)piperidin-1-yl)ethoxy)isoxazol-5-yl)-3-methylbutanoyl)-N-(2-cyano-4-(4-methylthiazol-5-yl)benzyl)-4-hydroxypyrrolidine-2-carboxamide]: the DC50 under setting [2] is under 2.5 nM. For the same molecule, the Dmax (BRM degradation, SW1573 cells, tested at the top concentration of between 0.3 and 10 μM, read-out: Dmax (%) (% degraded)) was over 75%.

With `Cc1ncsc1-c1ccc(CNC(=O)[C@@H]2C[C@@H](O)CN2C(=O)[C@@H](c2cc(OCCOCCOCCOCCOc3cc(N4C5CCC4CN(c4cc(-c6ccccc6O)nnc4N)C5)ccn3)no2)C(C)C)cc1` [compound 30, (2S,4R)-1-[(2R)-2-(3-[[1-(4-[3-[3-amino-6-(2-hydroxyphenyl)pyridazin-4-yl]-3,8-diazabicyclo[3.2.1]octan-8-yl]pyridin-2-yl)-1,4,7,10-tetraoxadodecan-12-yl]oxy]-1,2-oxazol-5-yl)-3-methylbutanoyl]-4-hydroxy-N-[[4-(4-methyl-1,3-thiazol-5-yl)phenyl]methyl]pyrrolidine-2-carboxamide], under setting [2], the DC50 is under 2.5 nM. Also, under setting [4], the Dmax is over 75%.

`Cc1ncsc1-c1ccc([C@H](C)NC(=O)[C@@H]2C[C@@H](O)CN2C(=O)[C@@H](c2cc(N3CCC(CN4CCC(O[C@H]5C[C@H](Oc6cc(N7C8CCC7CN(c7cc(-c9ccccc9O)nnc7N)C8)ccn6)C5)CC4)CC3)no2)C(C)C)c(O)c1` [compound 690, (2S,4R)-1-((2R)-2-(3-(4-((4-((1r,3r)-3-((4-(3-(3-amino-6-(2-hydroxyphenyl)pyridazin-4-yl)-3,8-diazabicyclo[3.2.1]octan-8-yl)pyridin-2-yl)oxy)cyclobutoxy)piperidin-1-yl)methyl)piperidin-1-yl)isoxazol-5-yl)-3-methylbutanoyl)-4-hydroxy-N-((S)-1-(2-hydroxy-4-(4-methylthiazol-5-yl)phenyl)ethyl)pyrrolidine-2-carboxamide]: under setting [2], the DC50 was under 2.5 nM. Moreover, the Dmax under setting [3] is over 75%.

A word on the DC50: it is the concentration at which degradation of the target reaches its halfway point. One may read the Dmax as the greatest extent of degradation seen.
